Series [1] deals with T1, BCRP (Homo sapiens, UniProt Q9UNQ0).
T1 construct: expressed in transfected cells; host or cells: CHO-K1
T1 sequence (Q9UNQ0 1-655): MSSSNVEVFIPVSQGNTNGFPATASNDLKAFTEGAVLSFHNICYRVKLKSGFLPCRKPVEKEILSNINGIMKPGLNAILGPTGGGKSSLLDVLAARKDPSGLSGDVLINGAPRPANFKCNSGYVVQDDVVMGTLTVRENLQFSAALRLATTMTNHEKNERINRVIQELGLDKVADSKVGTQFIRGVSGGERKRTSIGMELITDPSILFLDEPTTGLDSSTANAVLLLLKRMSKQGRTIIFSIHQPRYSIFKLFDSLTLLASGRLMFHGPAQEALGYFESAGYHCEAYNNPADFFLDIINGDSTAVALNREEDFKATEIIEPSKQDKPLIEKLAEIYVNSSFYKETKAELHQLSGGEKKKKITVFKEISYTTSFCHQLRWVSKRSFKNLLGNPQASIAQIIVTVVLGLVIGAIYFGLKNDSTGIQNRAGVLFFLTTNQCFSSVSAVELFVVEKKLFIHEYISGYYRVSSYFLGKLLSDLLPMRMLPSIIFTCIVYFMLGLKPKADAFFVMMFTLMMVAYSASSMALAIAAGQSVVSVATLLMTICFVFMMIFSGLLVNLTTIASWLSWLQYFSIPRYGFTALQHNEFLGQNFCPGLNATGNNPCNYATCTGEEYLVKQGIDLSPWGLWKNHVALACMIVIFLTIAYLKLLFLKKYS
In words: BCRP fluorimetric inhibition assay, Hoechst 33342 substrate, recombinant CHO-K1 cells. Conditions: Hoechst 33342 (5 μm) substrate, 20 min at 37° C., fluorimetry. Type of series: cell-based. The method, then:
The IC-50 value of OBR 5-340 and MS 112 were determined according to the method described by Paturi D. K, et al in Int. J. Pharm. (2010), 384: 32-38. The source used for the determination was human recombinant CHO-K1 cells, while Hoechst 33342 (5 μm) was used as the substrate. The cells were incubated for 20 min at 37° C. and the detection was accomplished by fluorimetry.
Fluorimetric Inhibition Assay:
The percent of control is calculated using the following equation.
In this formula, “Compound” is the individual reading in the presence of the test compound. “T1” is the mean reading in the absence of the test compound. Background is the mean reading in the presence of the highest effective concentration of the reference inhibitor.
The percent of inhibition is calculated by subtracting the percent of control from 100. The IC50 value (concentration causing a half-maximal inhibition of the control value) is determined by non-linear regression analysis of the concentration-response curve using the Hill equation.

Series [2] has as its system CYP1A. In words: Cytochrome P450 inhibition (DMPK studies). Type of series: in vitro ADME.
Series [3] addresses T2, CYP2B6 (Homo sapiens, UniProt P20813).
T2 sequence (P20813 1-491): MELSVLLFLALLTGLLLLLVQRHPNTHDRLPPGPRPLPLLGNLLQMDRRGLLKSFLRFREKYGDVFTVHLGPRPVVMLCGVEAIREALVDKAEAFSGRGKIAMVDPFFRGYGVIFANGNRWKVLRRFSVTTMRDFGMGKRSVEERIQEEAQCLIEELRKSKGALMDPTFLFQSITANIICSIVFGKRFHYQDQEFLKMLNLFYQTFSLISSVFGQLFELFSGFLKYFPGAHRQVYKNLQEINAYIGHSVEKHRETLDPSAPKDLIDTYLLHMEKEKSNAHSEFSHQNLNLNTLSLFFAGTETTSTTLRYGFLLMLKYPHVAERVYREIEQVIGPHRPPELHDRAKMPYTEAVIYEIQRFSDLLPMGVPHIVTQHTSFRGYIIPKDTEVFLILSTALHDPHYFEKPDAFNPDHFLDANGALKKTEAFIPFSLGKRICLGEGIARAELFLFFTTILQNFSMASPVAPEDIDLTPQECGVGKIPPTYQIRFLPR
In words: Cytochrome P450 inhibition (DMPK studies). Type of series: in vitro ADME.

Series [4] deals with CYP2C9 (Homo sapiens, UniProt P11712). Nature of the series: Cytochrome P450 inhibition (DMPK studies). Type of series: in vitro ADME. The source says: (§1) Also no induction of CYP1A2, CYP2B6, and CYP3A4 could be found.
The target in series [5] is T3, CYP2C8 (Homo sapiens, UniProt P10632).
T3 sequence (P10632 1-490): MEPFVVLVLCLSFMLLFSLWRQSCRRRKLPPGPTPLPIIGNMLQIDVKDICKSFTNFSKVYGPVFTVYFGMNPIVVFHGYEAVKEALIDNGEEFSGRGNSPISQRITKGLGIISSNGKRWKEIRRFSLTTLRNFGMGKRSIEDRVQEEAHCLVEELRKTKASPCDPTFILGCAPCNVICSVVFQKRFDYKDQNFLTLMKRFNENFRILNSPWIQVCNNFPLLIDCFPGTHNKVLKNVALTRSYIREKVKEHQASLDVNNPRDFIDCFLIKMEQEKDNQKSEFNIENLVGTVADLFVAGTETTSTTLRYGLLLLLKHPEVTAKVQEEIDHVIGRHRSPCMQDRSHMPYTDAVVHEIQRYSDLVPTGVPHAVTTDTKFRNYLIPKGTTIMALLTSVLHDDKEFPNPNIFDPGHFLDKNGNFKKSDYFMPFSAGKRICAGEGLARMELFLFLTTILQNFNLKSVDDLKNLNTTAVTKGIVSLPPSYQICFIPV
In words: Cytochrome P450 inhibition (DMPK studies). Type of series: in vitro ADME.
From the text: as §1

Series [6] has as its target CYP2C19 (Homo sapiens, UniProt P33261). In words: Cytochrome P450 inhibition (DMPK studies). Type of series: in vitro ADME.
From the text: as §1

Series [7] has as its target CYP2D6 (Homo sapiens, UniProt P10635). In words: Cytochrome P450 inhibition (DMPK studies). Type of series: in vitro ADME.
From the text: as §1

Series [8] has as its system CYP3A. Nature of the series: Cytochrome P450 inhibition (DMPK studies). Type of series: in vitro ADME.
From the text: as §1

In series [9] the test system is CYP3A4. In words: Cytochrome P450 induction (DMPK studies). Type of series: in vitro ADME.
From the text: as §1

Series [10] concerns CYP1A2. Nature of the series: Cytochrome P450 induction (DMPK studies). Type of series: in vitro ADME.
From the text: as §1

For series [11], the system named is CYP2B6. Nature of the series: Cytochrome P450 induction (DMPK studies). Type of series: in vitro ADME.
From the text: as §1

Chain of CYP2D6 (P10635 whole entry): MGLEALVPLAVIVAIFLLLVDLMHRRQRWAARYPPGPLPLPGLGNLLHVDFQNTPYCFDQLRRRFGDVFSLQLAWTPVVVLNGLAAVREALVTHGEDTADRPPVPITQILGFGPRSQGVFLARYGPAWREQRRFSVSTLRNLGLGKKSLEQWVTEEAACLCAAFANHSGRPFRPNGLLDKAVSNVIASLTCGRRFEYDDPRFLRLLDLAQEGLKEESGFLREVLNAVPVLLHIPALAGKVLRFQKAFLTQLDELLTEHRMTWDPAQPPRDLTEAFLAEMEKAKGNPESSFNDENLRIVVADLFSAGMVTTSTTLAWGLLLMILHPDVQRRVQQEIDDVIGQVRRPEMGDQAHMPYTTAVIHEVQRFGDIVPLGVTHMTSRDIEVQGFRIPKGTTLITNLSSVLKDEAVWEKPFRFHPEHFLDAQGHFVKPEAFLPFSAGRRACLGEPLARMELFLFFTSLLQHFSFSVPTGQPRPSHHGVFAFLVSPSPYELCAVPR
Chain of CYP2C19 (P33261 whole entry): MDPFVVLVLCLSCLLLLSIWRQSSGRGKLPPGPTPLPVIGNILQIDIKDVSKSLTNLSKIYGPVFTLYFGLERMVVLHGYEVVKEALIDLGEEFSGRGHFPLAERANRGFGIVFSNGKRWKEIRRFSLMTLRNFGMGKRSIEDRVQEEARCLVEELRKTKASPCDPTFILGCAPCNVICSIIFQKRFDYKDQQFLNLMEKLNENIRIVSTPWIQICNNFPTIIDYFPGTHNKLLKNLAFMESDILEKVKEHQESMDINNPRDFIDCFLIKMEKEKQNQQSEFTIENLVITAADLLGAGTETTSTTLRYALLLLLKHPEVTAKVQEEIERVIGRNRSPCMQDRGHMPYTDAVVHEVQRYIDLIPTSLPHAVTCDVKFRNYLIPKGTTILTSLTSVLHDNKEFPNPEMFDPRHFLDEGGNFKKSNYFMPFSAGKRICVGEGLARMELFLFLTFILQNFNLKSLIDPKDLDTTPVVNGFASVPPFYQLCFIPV
Chain of CYP2C9 (P11712 whole entry): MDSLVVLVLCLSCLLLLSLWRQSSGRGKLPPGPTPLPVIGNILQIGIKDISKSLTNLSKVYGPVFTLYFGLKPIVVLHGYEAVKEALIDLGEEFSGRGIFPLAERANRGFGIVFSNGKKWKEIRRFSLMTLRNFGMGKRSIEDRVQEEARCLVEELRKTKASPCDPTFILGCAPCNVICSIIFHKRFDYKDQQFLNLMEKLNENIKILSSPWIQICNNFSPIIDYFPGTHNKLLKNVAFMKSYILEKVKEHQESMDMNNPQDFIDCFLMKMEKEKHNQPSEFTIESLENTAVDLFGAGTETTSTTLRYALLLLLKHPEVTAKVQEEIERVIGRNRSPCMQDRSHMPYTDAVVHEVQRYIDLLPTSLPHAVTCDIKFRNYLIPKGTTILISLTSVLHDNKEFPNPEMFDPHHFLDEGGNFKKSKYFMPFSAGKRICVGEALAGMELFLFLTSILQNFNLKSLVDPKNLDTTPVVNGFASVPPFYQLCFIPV

Turning to `Nc1nc(-c2ccc(OC(F)(F)F)cc2)nc2[nH]nc(Nc3ccccc3)c12` [MS-112, 4-amino-3-phenylamino-6-[4-(trifluormethoxy)-phenyl]pyrazolo[3,4-d]pyrimidine], the IC50 in [1] was roughly 100 µM.

As to `Nc1nc(-c2ccccc2)nc2[nH]nc(Nc3ccc(C(F)(F)F)cc3)c12` [OBR-5-340, 4-amino-3-(4-trifluormethyl-phenyl)amino-6-phenylpyrazolo[3,4-d]pyrimidine], the “inhibition of CYP1A” value in [2] is listed as “does not inhibit”. The IC50 in series [1] was found to be 1.7 µM. The “inhibition of CYP2B6” value in series [3] is “does not inhibit”. Also, the “inhibition of CYP2C9” value in series [4] is “does not inhibit”. In addition, in [5], the “inhibition of CYP2C8” value was “does not inhibit”. In addition, the “inhibition of CYP2C19” value in series [6] is listed as “does not inhibit”. Also, the “inhibition of CYP2D6” value in [7] was “does not inhibit”. For the same compound, the “inhibition of CYP3A” value in [8] was “does not inhibit”. Besides, the “induction of CYP3A4” value in [9] is reported as “no induction”. The “induction of CYP1A2” value in series [10] is recorded as “no induction”. Besides, the “induction of CYP2B6” value in series [11] is “no induction”.

For the origin of these results see patent US10975079B2, “4-amino-3-phenylamino-6-phenylpyrazolo[3,4-d]pyrimidine derivatives for use as BCRP inhibitors in therapeutic treatments” (SCANDION ONCOLOGY A/S, priority 2015, dated 2021).
